What was measured:
[1] = target: T1, isolated kinase domain of the human FLT3 receptor (a.a. 571-993) (Homo sapiens, UniProt P36888); experiment: FLT3 fluorescence polarization kinase assay; type: biochemical; conditions: 150 uM ATP; uncertainty ±10%
T1 construct: human FLT3 receptor (a.a. 571-993)
T1 sequence (P36888 571-993): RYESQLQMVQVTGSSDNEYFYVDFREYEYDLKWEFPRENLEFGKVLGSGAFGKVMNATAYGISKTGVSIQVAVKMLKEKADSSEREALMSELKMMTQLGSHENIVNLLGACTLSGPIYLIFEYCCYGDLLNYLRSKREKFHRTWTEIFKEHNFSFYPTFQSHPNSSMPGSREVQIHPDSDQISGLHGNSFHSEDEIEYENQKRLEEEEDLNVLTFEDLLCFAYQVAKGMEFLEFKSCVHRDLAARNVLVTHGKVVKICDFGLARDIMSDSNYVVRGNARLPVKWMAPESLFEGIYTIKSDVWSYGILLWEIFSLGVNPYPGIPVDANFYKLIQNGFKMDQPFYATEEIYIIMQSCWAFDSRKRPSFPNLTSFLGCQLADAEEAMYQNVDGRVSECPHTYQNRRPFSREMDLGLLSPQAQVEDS

MV4-11 cells = experiment: Inhibition of MV4-11 cell proliferation (CellTiterGlo, 72 h); type: cell-based; conditions: Homo sapiens; 72 h growth inhibition; uncertainty ±20%

SMILES | IC50 [1] | IC50 (MV4-11 cells)
CC(C)Oc1ccc(NC(=O)N2CCC(c3ncnc4ccc(OCCCN5CCN(C)CC5)cc34)CC2)cc1 [Example 76, 4-{6-[3-(4-Methyl-piperazin-1-yl)-propoxy]-quinazolin-4-yl}-piperidine-1-carboxylic acid (4-isopropoxy-phenyl)-amide] | 0.251 µM | 0.179 µM
O=C1CCCN1CCOc1ccc2c(C3CCN(C(=O)Nc4ccc(N5CCCC5)cc4)CC3)ncnc2c1 [Example 74, 4-{7-[2-(2-Oxo-pyrrolidin-1-yl)-ethoxy]-quinazolin-4-yl}-piperidine-1-carboxylic acid (4-pyrrolidin-1-yl-phenyl)-amide] | 0.001 µM | 0.04 µM
CN1CCC(COc2ccc3c(C4CCN(C(=O)Nc5ccc(N6CCCC6)nc5)CC4)ncnc3c2)CC1 [Example 99, 4-[7-(1-Methyl-piperidin-4-ylmethoxy)-quinazolin-4-yl]-piperidine-1-carboxylic acid (6-pyrrolidin-1-yl-pyridin-3-yl)-amide] | 0.001 µM | 0.058 µM
CS(=O)(=O)NCCCOc1ccc2c(C3CCN(C(=O)Nc4ccc(N5CCOCC5)cc4)CC3)ncnc2c1 [Example 66, 4-[7-(3-Methanesulfonylamino-propoxy)-quinazolin-4-yl]-piperidine-1-carboxylic acid (4-morpholin-4-yl-phenyl)-amide] | 0.018 µM | 0.014 µM
O=C(Nc1ccc(N2CCCC2)nc1)N1CCC(c2ncnc3cc(OCCN4CCOC4=O)ccc23)CC1 [Example 92, 4-{7-[2-(2-Oxo-oxazolidin-3-yl)-ethoxy]-quinazolin-4-yl}-piperidine-1-carboxylic acid (6-pyrrolidin-1-yl-pyridin-3-yl)-amide] | 0.0002 µM | 0.021 µM
O=C1CCCN1CCOc1ccc2c(C3CCN(C(=O)Nc4ccc(N5CCOCC5)nc4)CC3)ncnc2c1 [Example 83, 4-{7-[2-(2-Oxo-pyrrolidin-1-yl)-ethoxy]-quinazolin-4-yl}-piperidine-1-carboxylic acid (6-morpholin-4-yl-pyridin-3-yl)-amide] | 0.02 µM | 0.112 µM
CC(C)Oc1ccc(NC(=O)N2CCC(c3ncnc4cc(OCCCNS(C)(=O)=O)ccc34)CC2)cc1 [Example 65, 4-[7-(3-Methanesulfonylamino-propoxy)-quinazolin-4-yl]-piperidine-1-carboxylic acid (4-isopropoxy-phenyl)-amide] | 0.019 µM | 0.027 µM
COc1cc2ncnc(C3CCN(C(=O)Nc4ccc(C(C)(C)C)cc4)CC3)c2cc1OC [Example 53, 4-(6,7-Dimethoxy-quinazolin-4-yl)-piperidine-1-carboxylic acid (4-tert-butyl-phenyl)-amide] | 0.015 µM | 0.048 µM
O=C1CCCN1CCCOc1ccc2c(C3CCN(C(=O)Nc4ccc(N5CCOCC5)nc4)CC3)ncnc2c1 [Example 72, 4-{7-[3-(2-Oxo-pyrrolidin-1-yl)-propoxy]-quinazolin-4-yl}-piperidine-1-carboxylic acid (6-morpholin-4-yl-pyridin-3-yl)-amide] | 0.027 µM | 0.054 µM
COCCCOc1ccc2c(C3CCN(C(=O)Nc4ccc(N5CCOCC5)cc4)CC3)ncnc2c1 [Example 78, 4-[7-(3-Methoxy-propoxy)-quinazolin-4-yl]-piperidine-1-carboxylic acid (4-morpholin-4-yl-phenyl)-amide] | 0.225 µM | 0.081 µM
COc1cc2ncnc(C3CCN(C(=O)Nc4ccc(OC(C)C)nc4)CC3)c2cc1OC [Example 56, 4-(6,7-Dimethoxy-quinazolin-4-yl)-piperidine-1-carboxylic acid (6-isopropoxy-pyridin-3-yl)-amide] | 0.03 µM | 0.189 µM
O=C(Nc1ccc(N2CCOCC2)cc1)N1CCC(c2ncnc3cc(OCCCN4CCCCC4)ccc23)CC1 [Example 75] | 0.049 µM | 0.07 µM
CC(C)Oc1ccc(NC(=O)N2CCC(c3ncnc4ccccc34)CC2)cc1 [Example 8, 4-Quinazolin-4-yl-piperidine-1-carboxylic acid (4-isopropoxy-phenyl)-amide] | 0.2 µM | 0.533 µM
